Patent US20250296961A1, “ANTIMICROBIAL PEPTIDES FOR REMINERALIZATION OF TEETH AND PREVENTION OF DENTAL CARIES” (The University of Hong Kong, priority 2021, published 2025)
Read-outs that look alike come from different tables or passages of the source.

Legend:
S. mutans = test: Anti-planktonic bacterial ability, MIC and MBC (Example 1); format: cell-based, Streptococcus mutans (ATCC 35668)
Method: (§1) Streptococcus mutans (ATCC 35668, ATCC, Manassas, USA) were cultured in Horse Blood Medium under anaerobic (85% N2, 10% H2, and 5% CO2) conditions at 37° C. Cells were harvested by centrifugation (5000 rpm, 10 min), washed once with 10 mM sodium phosphate-buffered saline (PBS, pH 7.2), and resuspended in brain-heart infusion broth (BHI, Difco Laboratories, Detroit, USA) at a concentration of 10^6 CFU/mL.
Two-fold serial dilutions (in 10 mM HEPES) of P-113, P-113-DPS, P-113-DA, P-113-SK, and Sp-H5 prepared in 25% BHI medium were pipetted into a 96-well cell culture plate at final concentrations from 0.125-128 μmol/mL [100 μL/well]. Each well was seeded with 10 μL bacterial suspension at a final concentration of 10^6 CFU/mL. Sp-H5 with bacterial cells and 25% BHI medium with and without bacterial cells in 10 mM HEPES buffer (pH 7) were used as the positive, negative, and blank control group, respectively. After a 24-h incubation, absorbance was measured at 595 nm using a microplate reader to assess cell growth. […] The minimal bactericidal concentration (MBC) was defined as the lowest concentration of peptide resulting in no colony formation on agar plates after incubation. 10 μL of cell suspension from each well were plated on horse blood agar plates and incubated at 37° C. for 48 h. All determinations were conducted in triplicate experiments.

[1] = Demineralization assay of peptide-coated enamel (Example 1); set-up: species or system human; settings: demineralization solution 7 days
Method: (§2) 3×3×1.5 mm^3 (number: 197) tooth slices were prepared using a water-cooled diamond saw (IsoMet low-speed saw, Buehler, Lake Bluff, IL, USA). One working surface of complete enamel tissue from each tooth slice was generated using the MicroCT Skyscan 1172 (Bruker MicroCT, Kontich, Belgium). The enamel working side of the tooth slice was polished and other sides marked with acid-proof nail polish. All tooth slices were cleaned and stored in deionized water at 4° C.
Tooth slices (N=30) were immersed in 8 μmol/mL P-113, P-113-DPS, P-113-DA, P-113-SK, Sp-H5 (n=5 for each) solutions (in 10 mM HEPES) or HEPES (control) overnight. Tooth slices were incubated in 2 mL demineralization solution (2.2 mM CaCl2), 2.2 mM NaH2PO4, 0.05 M acetic acid, pH 4.5) for 7 days at 37° C. Lesions depths were analyzed by MicroCT Skyscan 1172. Mineral calcium (Ca) or phosphorus (P) concentrations before and after immersion were measured using Inductively Coupled Plasma Optical Emission Spectrometer (ICP-OES; Spectro Arcos, Kleve, Germany). Ca/P loss was expressed as mM/cm^2. The mean values of Ca/P loss were analyzed for each group using ANOVA at the 1% c significance level.

S. mutans biofilms = format: cell-based
Method: as §1
S. mutans biofilms were cultured on enamel working surfaces in a 96-well plate. Tooth slices (N=32) were autoclave-sterilized prior to anti-biofilm activity testing. 200 μL S. mutans in BHI (10^6 CFU/mL) was added to each well. After a 24-h incubation at 37° C., each tooth slice was washed once with PBS. […] (in 10 mM HEPES). After incubation, tooth slices were washed once with PBS. One tooth slice at random in each group was stained with the LIVE/DEAD BacLight Bacterial Viability Kit (L7012, Thermo Fisher Scientific, Waltham, USA) and incubated in the dark for 30 min. Fluorescence images were obtained using confocal laser scanning microscopy (CLSM, Fluoview 1000, Olympus, USA). A separate tooth slice was used for the counting of colony-forming units (CFU). Tooth slices were placed in 1 mL BHI solution, and adherent biofilms were removed from the enamel surfaces by sonication for 30 sec. Ten-fold serial dilutions of the suspensions were plated in duplicate on horse blood agar. CFU's were counted after 48-h incubation. Three independent biofilm experiments were performed.

[2] = Remineralization assay of peptide-coated enamel (Example 1); set-up: species or system human; settings: 8 μmol/mL coating, remineralization solution 24 h, FE-SEM
Method: as §2
The enamel working surface of tooth slices (N=30) was acid-etched in 37% phosphoric acid for 1 min and rinsed with deionized water for 1 min. The slices were immersed in 8 μmol/mL P-113, P-113-DPS, P-113-DA, P-113-SK, Sp-H5 (n=5 for each) solutions (in 10 mM HEPES) or HEPES (control) overnight. All tooth slices were incubated in 7 mL remineralization solution (2.58 mM CaCl2)·2H2O, 1.55 mM KH2PO4, 10 mg/L NaF, 180 mM NaCl, 50 mM Tris-HCl, pH 7.6) for 24 h. The enamel surface and cross-section morphology were analyzed by FE-SEM (Hitachi, S4800). Ca/P concentrations in the solutions before and after immersion were calculated by ICP-OES. The mean values for Ca/P gain were analyzed using ANOVA at the 1‰ significance level.

S. sanguinis = test: Anti-planktonic bacterial ability, MBC (Example 2); format: cell-based, S. sanguinis (ATCC 10556)
Method: S. mutans (ATCC 35668, ATCC, Manassas, USA), S. gordonii (ATCC 35105, ATCC, Manassas, USA), and S. sanguinis (ATCC 10556, ATCC, Manassas, USA) strains were cultured in brain-heart infusion broth (BHI, Difco Laboratories, Detroit, USA) at 37° C. under anaerobic conditions (85% N2, 10% H2, and 5% CO2). Bacteria were harvested by centrifugation (5000 rpm, 10 min), washed once with sodium phosphate-buffered saline (PBS, 10 mM, pH=7.2), and resuspended in BHI at a concentration of 1×10^6 CFU mL^−1.
Each well was seeded with 10 μL S. mutans suspension, S. gordonii suspension, and S. sanguinis suspension, respectively. […] The bacterial growth was assessed by measuring the absorbance at 595 nm using a microplate reader after a 24-hour incubation. Subsequently, 10 μL of bacterial suspension from each well were plated on horse blood agar plates and incubated at 37° C. for 48 h. The antibacterial activities of AMPs were evaluated.

## AKRHHGYKRKFH [Peptide P-113, non-specific AMP, portion of human histatin 5]
S. mutans
  MBC: >128 μM mL^−1
S. mutans; 24 h
  MIC: 32 μM mL^−1
[1]; 8 μmol/mL coating, MicroCT
  Maximum lesion depth: 115 μm
[1]
  Ca losses vs control group: Significant differences were not detected
S. mutans biofilms; 128 μmol/mL, 24 h exposure
  S. mutans killed (biofilm): 79%
S. mutans biofilms; 160 μmol/mL
  S. mutans killed (biofilm): 87%
S. mutans biofilms; 24 h, concentration not given
  CLSM live/dead state of S. mutans biofilm: the majority of S. mutans in BHI and P-113 were alive
[2]
  Thickness of the regenerated crystal layer on the enamel surface: 6 μm
S. sanguinis
  MBC, S. sanguinis: >128 μM mL^−1
